In brackets after ≈: the same amount, converted by molar mass. Several values for one entry are separate records, joined by “and”; a condition that tells them apart may be missing. Equal entries are not always repeated. Where two headings read alike, the source gives them in different places.
Key:
[1] = test system: BVDV (strain NADL); experiment: BVDV cell protection assay (CPA); assay type: cell-based; conditions: Bovine viral diarrhea virus isolates and strains, MOI of BVDV 0.04
[2] = test system: CVB-2; experiment: organism not typed; assay type: cell-based, Coxsackie B-2 virus; conditions: read-out: EC50 CVB-2
[3] = test system: REO-1; experiment: microbe, parasite or virus in culture; assay type: cell-based, double-stranded RNA Reovirus; conditions: Reovirus sp., read-out: REO
[4] = test system: BVDV; assay type: cell-based, bovine viral diarrhea virus; conditions: for EC4 log: MDBK
[5] = test system: West Nile Virus; experiment: microbe, parasite or virus in culture; assay type: cell-based; conditions: BHK
[6] = test system: DENV-2; experiment: microbe, parasite or virus in culture; assay type: cell-based; conditions: Dengue virus, DENV2, read-out: composite EC50 range
[7] = test system: Polio Virus Sb-1; experiment: organism not typed; assay type: cell-based; conditions: Vero
[8] = test system: VEE; experiment: microbe, parasite or virus in culture; assay type: cell-based; conditions: Venezuelan equine encephalitis virus, Vero
[9] = test system: HSV-1; experiment: Antiviral activity, HSV-1 (HFF); assay type: cell-based; conditions: Human alphaherpesvirus 1
[10] = test system: HSV-2; experiment: Antiviral activity, HSV-2 (HFF); assay type: cell-based; conditions: Human alphaherpesvirus 2
[11] = test system: VZV; experiment: Antiviral activity, VZV (HFF); assay type: cell-based; conditions: Human alphaherpesvirus 3
[12] = test system: HCMV; experiment: Antiviral activity, HCMV (HFF); assay type: cell-based; conditions: Human betaherpesvirus 5
[13] = test system: MCMV; experiment: Antiviral activity, MCMV (MEF); assay type: cell-based
[14] = test system: Influenza A/H3N2; experiment: Antiviral activity, Influenza A/H3N2 (MDCK); assay type: cell-based; conditions: Influenza A virus
[15] = test system: Influenza B; experiment: Antiviral activity, Influenza B (MDCK); assay type: cell-based; conditions: Influenza B virus
[16] = test system: Adenovirus type 1; experiment: Antiviral activity, Adenovirus type 1 (A549); assay type: cell-based; conditions: Human mastadenovirus C
[17] = test system: Parainfluenza type 3; experiment: Antiviral activity, Parainfluenza type 3 (MA-104); assay type: cell-based; conditions: MA104
[18] = test system: Rhinovirus type 2; experiment: microbe, parasite or virus in culture; assay type: cell-based; conditions: Enterovirus
[19] = test system: RSV type A; experiment: Antiviral activity, RSV type A (MA-104); assay type: cell-based; conditions: human respiratory syncytial virus, MA104
[20] = test system: Punta Toro A; experiment: organism not typed; assay type: cell-based; conditions: LLC-MK2
[21] = test system: MDCK, canine kidney cells; experiment: Cytotoxicity, MDCK; assay type: cell-based
[22] = test system: A549, Human lung carcinoma cells; experiment: Cytotoxicity, A549; assay type: cell-based; conditions: Adenovirus type 1 line
[23] = test system: KB, human nasopharyngeal carcinoma; experiment: Cytotoxicity, KB; assay type: cell-based
[24] = test system: HeLa, human cervical adenocarcinoma cells; experiment: Cytotoxicity, HeLa-Ohio; assay type: cell-based; conditions: Rhinovirus type 14 line
[25] = test system: HIV; assay type: cell-based
[26] = test system: HBV; assay type: cell-based
[27] = test system: BVDV (strain I-N-dIns), noncytopathic; assay type: cell-based, bovine viral diarrhea virus
[28] = test system: BVDV New York-1 (NY-1) strain; experiment: MDBK cells persistently infected with BVDV strain New York-1, virus titer; assay type: cell-based, bovine viral diarrhea virus; conditions: 8 μM alone, after one passage
[29] = test system: BVDV RNA; experiment: Intracellular BVDV RNA by Real Time RT-PCR in de novo-infected MDBK cells; assay type: cell-based, bovine viral diarrhea virus
[30] = test system: MT-4 human T-lymphocyte cells; conditions: human
[31] = test system: LLC-MK2, Rhesus monkey kidney cells; conditions: Punta Toro A line
[32] = test system: MA-104, Rhesus monkey kidney cells; experiment: Cytotoxicity, MA-104; conditions: Parainfluenza type 3 line
[33] = test system: MEF mouse embryo fibroblasts; experiment: Cytotoxicity assay, MEF; conditions: MCMV (MEF) line
[34] = Stability in human plasma; conditions: 37° C.
[35] = Cytotoxicity (cell proliferation) assay, HepG2; conditions: human, HepG2 cells
[36] = test system: HepG2 human hepatoma cell line; experiment: Cytotoxicity (cell proliferation) assay, HepG2; conditions: cells grown on collagen coated plates for 4 or 10 d
[37] = test system: HepG2 cells; experiment: Incorporation of drug into cellular RNA and DNA; conditions: 10 μM [3H] drug, 30 hours
[38] = test system: HepG2 cells; experiment: Cellular RNA synthesis, [3H]-uridine incorporation; conditions: read-out: CC50 RNA ([3H]Uridine); 50% reduction of uridine incorporation into cellular RNA
[39] = test system: HepG2 cells; experiment: Cellular DNA synthesis, [3H]-thymidine incorporation; conditions: read-out: CC50 DNA ([3H]Thymidine); 50% reduction of thymidine incorporation into cellular DNA
[40] = test system: HepG2 cells; experiment: Transmission electron microscopy of mitochondrial ultrastructure
[41] = test system: human cytidine/deoxycytidine deaminase enzymes; conditions: 37° C.

CC1(O)C(O)C(CO)OC1n1ccc(N)nc1=O (stereo not shown) [mCyd, 4-Amino-1-(3,4-dihydroxy-5-hydroxymethyl-3-methyl-tetrahydro-furan-2-yl)-1H-pyrimidine-2-one]
EC50 [1]: 0.5 µM | EC50 [2]: 11 µM | EC50 [3]: 13 µM | EC4 log ([4]; BVDV I-N-dIns ncp (recombinant)): 7.14 μM | EC4 log ([4]; BVDV I-NADL cp (recombinant)): 8.22 μM | suppression of de novo BVDV production ([4]; subcytotoxic concentrations (circa 20 μM)): up to 6 logs | EC50 [5]: 63 to 97 µM | EC50 [6]: 59 to 95 µM | EC50 [7]: 6 µM | EC50 [8]: 1.3 to 45 µM | EC50 [9]: > 100 µg/mL | EC50 [10]: > 100 µg/mL | EC50 [11]: > 20 µg/mL | EC50 [12]: 9.9 to 15.6 µg/mL (≈ 38.5 to 60.6 µM) | EC50 [13]: > 0.8 µM | EC50 [14]: > 20 µM | EC50 [15]: > 200 µM | EC50 [16]: > 200 µM | EC50 [17]: > 200 µM | EC50 [18]: 2 to 10 µM | EC50 [19]: > 200 µM | EC50 [20]: > 200 µM | CC50 ([21]; Influenza A/H1N1 line): > 200 µM | CC50 ([21]; Influenza A/H3N2 line): 45 to 65 µM | CC50 ([21]; Influenza B line): 55 to 140 µM | CC50 [22]: > 200 µM | CC50 ([23]; Rhinovirus type 2 line, read-out: CC50): > 200 µM | CC50 ([23]; Rhinovirus type 5 line): 20 to 30 µg/mL | CC50 [24]: 20->100 μg/mL | activity against HIV [25]: no activity | activity against HBV [26]: no activity | reduction of BVDV titer ([27]; 4 μM, one cell passage (3 days)): approximately 3 log10 | reduction of virus production ([27]; 8 μM): 6.2 log10 | virus production ([27]; 16 μM, within two cell passages, from more than 6 logs of virus per ml): undetectable levels | reduction of viral titers [28]: approximately 3.5 log10 | effect on the level of the rig S15 cellular mRNA control [29]: No effect | maximum viral RNA reduction ([29]; highest inhibitor concentration tested (125 μM)): 4 log10 | CC50 [30]: 34 µM | CC50 [31]: > 200 µM | CC50 [32]: > 200 µM | CC50 [33]: 2.4 µM | in vitro stability, deamination to mUrd [34]: remained essentially unchanged | CC50 [35]: 200 µM | CC50 [36]: > 200 µM | Incorporated drug amount, DNA [37]: 0.0013 pmole/μg DNA and 0.0013 ± 0.0008^a pmole/μg DNA | Incorporated drug amount, RNA [37]: 0.0014 pmole/μg RNA and 0.0014 ± 0.0008^a pmole/μg RNA | CC50 [38]: 186 ± 28.2 µM | CC50 [39]: 112 ± 34.5 µM | Electron Microscopy, Lipid Droplet Form. ([40]; 10 μM, 14 days): Negative | Electron Microscopy, Mito. Morphol. ([40]; 10 μM, 14 days): Normal^d | cells in which 1 to 2 mitochondria out of an average of 25 appeared enlarged ([40]; 14 days of exposure to 10 μM): 17% | in vitro stability, deamination to mUrd [41]: remained essentially unchanged
